Test results reported in ChEMBL document CHEMBL5528001, “Synthetic product-based approach toward potential antileishmanial drug development” (Eur J Med Chem, 2024).

Assays:
[1] = Selectivity index, ratio of CC50 for cytotoxicity against HEK293 cells to IC50 for antileishmanial activity against Leishmania major IR-173 promastigotes; format: toxicity, cell-based; conditions: human, read-out: Ratio CC50/IC50
Leishmania major = experiment: Antileishmanial activity against Leishmania major MHOM/IR/-173 assessed as reduction in parasite viability measured for 48 hrs by alamar-blue dye based analysis; format: functional, organism-based; conditions: MHOM/IR/-173, 48 h
Leishmania donovani [2] = experiment: Antileishmanial activity against Leishmania donovani MHOM/IN/95/9515 assessed as reduction in parasite growth measured for 72 hrs by resazurin dye based analysis; format: functional, organism-based; conditions: MHOM/IN/95/9515, 72 h
[3] = Cytotoxicity against African green monkey Vero cells assessed as reduction in cell viability by MTT assay; format: toxicity, cell-based, Chlorocebus sabaeus
Leishmania donovani [4] = experiment: Antileishmanial activity against Leishmania donovani 9515 amastigotes assessed as inhibition of parasite growth incubated for 48 hrs by resazurin dye based assay; format: functional, organism-based; conditions: Leishmania donovani, 9515, 48 h
Leishmania donovani [5] = experiment: Antileishmanial activity against Leishmania donovani promastigotes MHOM/SD/62/1S assessed as inhibition of cell growth measured after 48 hrs by resazurin dye based assay; format: functional, organism-based
Leishmania donovani [6] = experiment: Antileishmanial activity against Leishmania donovani amastigotes MHOM/SD/62/1S assessed as inhibition of cell growth measured after 48 hrs by resazurin dye based assay; format: functional, organism-based
Leishmania tropica = experiment: Antileishmanial activity against Leishmania tropica MHOM/A7/1974/SAF-K27 assessed as reduction in parasite growth incubated for 48 hrs by Neubauer hemocytometer analysis; format: functional, organism-based; conditions: MHOM/A7/1974/SAF-K27, 48 h
Leishmania infantum [7] = experiment: Antileishmanial activity against Leishmania infantum MHOM/FR/2008/LEM5700 infected in BALB/c mouse assessed as reduction of parasite burden in liver at 10 mg/kg, po administered for 5 days relative to control; format: functional; design: scale not given: the % may be the effect or the level left; conditions: time 5 day
[8] = Cytotoxicity against human WI-38 cells assessed as reduction in cell viability incubated for 48 hrs by MTT assay; format: toxicity, cell-based
Leishmania infantum [9] = experiment: Antileishmanial activity against Leishmania infantum amastigotes infected in human THP-1 cells assessed as reduction in parasite growth; format: functional, organism-based
Leishmania infantum [10] = experiment: Antileishmanial activity against Leishmania infantum LEM 3049 isolate promastigote assessed as reduction in parasite growth after 72 hrs by MTT assay; format: functional, organism-based; conditions: LEM 3049, 72 h
Leishmania infantum [11] = experiment: Antileishmanial activity against Leishmania infantum promastigote assessed as inhibition of parasite growth after 72 hrs by MTT assay; format: functional, organism-based
Leishmania infantum [12] = experiment: Antileishmanial activity against Leishmanial infantum amastigotes assessed as inhibition of parasite growth measured after 72 hrs by MTT assay; format: functional, organism-based
HepG2 = experiment: Cytotoxicity against human HepG2 cells assessed as growth inhibition of cells measured for 48 hrs by MTT assay; format: functional, cell-based; conditions: HepG2, 48 h

Cc1ccc(Cn2cc(COC3=CC(=O)c4ccccc4C3=O)nn2)cc1 gave a selectivity ratio [1] of over 55, an IC50 (Leishmania major) of 1480 nM and an IC50 (Leishmania donovani [2]) of 810 nM.
With O=C(N/N=C\c1ccc([N+](=O)[O-])o1)c1ccc(OS(=O)(=O)c2cccnc2)cc1 the IC50 [3] was 3260 nM, the IC50 (Leishmania donovani [4]) was 90 nM and the IC50 (Leishmania donovani [5]) was 90 nM. The IC50 (Leishmania donovani [6]) was 90 nM and the IC50 (Leishmania tropica) was 40 nM.
COc1ccc(Br)cc1CN(C)C12CC3CC(CC(C3)C1)C2 showed an Activity (Leishmania infantum [7]) of 59%, a CC50 at 48 h [8] of 63700 nM and an IC50 (Leishmania infantum [9]) of 320 nM.
O=C(N/N=C1\C(=O)N(CC(O)COc2cc(=O)oc3ccccc23)c2ccccc21)c1ccncc1 (stereo not given) gave an IC50 (Leishmania infantum [10]) of 30 nM.
O=C(CCCc1cc2ccccc2[nH]1)Nc1nc2ccccc2c2ccccc12 gave an EC50 (Leishmania infantum [11]) of 8530 nM, an EC50 (Leishmania infantum [12]) of 8900 nM and an IC50 (HepG2) of 10 nM.
